Test results taken from US20240050432A1 (Infinity Pharmaceuticals, Inc., priority 2020, published 2024).
Like-named read-outs stand apart in the source and are kept apart here.

Experiments:
Assay type in all cases: in vivo, human
[1] = tested on: PD-L1; test: Paired tumor biopsies in TNBC phase II study: PD-L1 expression; details: 11 paired tumor biopsies; triplet regimen
[2] = Hepatic TEAEs by eganelisib dose in combination with nivolumab (phase 1 Part C, phase 2)
[3] = Eganelisib exposures (Cmax, AUC0-24 hrs) with combination therapies, 3 clinical studies; details: for observed highest individual concentration value: PK cutoff June-July 2020; for Cmax / AUC(0-t): human, in vivo
[4] = 30 mg QD, C1D1, model-predicted
[5] = 30 mg QD, C2D1, model-predicted
[6] = 40 mg QD, C1D1, model-predicted
[7] = 40 mg QD, C2D1, model-predicted

- Cmax, Max [3, 4]: 1750 ng/mL
- Cmax, Min [3, 4]: 637 ng/mL
- Cmax, Max [3, 5]: 4070 ng/mL
- Cmax, Min [3, 5]: 684 ng/mL
- observed highest individual concentration value ([3]; 30 mg QD, across all 3 studies): 4.42 µg/mL
- Cmax, Max [3, 6]: 3630 ng/mL
- Cmax, Min [3, 6]: 346 ng/mL
- Cmax, Max [3, 7]: 8830 ng/mL
- Cmax, Min [3, 7]: 480 ng/mL
- observed highest individual concentration value ([3]; 40 mg QD, across all 3 studies): 11.4 µg/mL
- observed highest individual concentration lower for 30 mg QD versus 40 mg QD ([3]; across all 3 studies): 61%
- Cmax ([3]; 30 mg QD, C1D1, model-predicted, read-out: Cmax, Mean): 1020 ng/mL
- Cmax ([3]; 30 mg QD, C1D1, model-predicted, read-out: Cmax, Median): 978 ng/mL
- AUC(0-t) ([3]; 30 mg QD, C2D1, model-predicted, read-out: AUC0-24 hrs, GeoMean): 29200 ng·h/mL
- AUC(0-t) ([3]; 30 mg QD, C2D1, model-predicted, read-out: AUC0-24 hrs, Mean): 33600 ng·h/mL
- AUC(0-t) ([3]; 30 mg QD, C2D1, model-predicted, read-out: AUC0-24 hrs, Median): 25800 ng·h/mL
- Cmax ([3]; 30 mg QD, C2D1, model-predicted, read-out: Cmax, GeoMean): 1680 ng/mL
- Cmax ([3]; 30 mg QD, C2D1, model-predicted, read-out: Cmax, Median): 1530 ng/mL
- AUC(0-t) ([3]; 40 mg, 40 mg QD, C1D1, model-predicted, read-out: AUC0-24 hrs, GeoMean): 26200 ng·h/mL
- AUC(0-t) ([3]; 40 mg, 40 mg QD, C1D1, model-predicted, read-out: AUC0-24 hrs, Mean): 28400 ng·h/mL
- AUC(0-t) ([3]; 40 mg, 40 mg QD, C1D1, model-predicted, read-out: AUC0-24 hrs, Median): 26000 ng·h/mL
- Cmax ([3]; 40 mg, 40 mg QD, C1D1, model-predicted, read-out: Cmax, GeoMean): 1550 ng/mL
- Cmax ([3]; 40 mg, 40 mg QD, C1D1, model-predicted, read-out: Cmax, Mean): 1650 ng/mL
- Cmax ([3]; 40 mg, 40 mg QD, C1D1, model-predicted, read-out: Cmax, Median): 1560 ng/mL
- AUC(0-t) ([3]; 40 mg, 40 mg QD, C2D1, model-predicted, read-out: AUC0-24 hrs, GeoMean): 42100 ng·h/mL
- AUC(0-t) ([3]; 40 mg, 40 mg QD, C2D1, model-predicted, read-out: AUC0-24 hrs, Mean): 49600 ng·h/mL
- AUC(0-t) ([3]; 40 mg, 40 mg QD, C2D1, model-predicted, read-out: AUC0-24 hrs, Median): 41400 ng·h/mL
- Cmax ([3]; 40 mg, 40 mg QD, C2D1, model-predicted, read-out: Cmax, GeoMean): 2470 ng/mL
- Cmax ([3]; 40 mg, 40 mg QD, C2D1, model-predicted, read-out: Cmax, Mean): 2770 ng/mL
- Cmax ([3]; 40 mg, 40 mg QD, C2D1, model-predicted, read-out: Cmax, Median): 2420 ng/mL
- AUC(0-t) ([3]; oral, 30 mg QD, C1D1, model-predicted, read-out: AUC0-24 hrs, GeoMean): 16100 ng·h/mL
- AUC(0-t) ([3]; oral, 30 mg QD, C1D1, model-predicted, read-out: AUC0-24 hrs, Mean): 16700 ng·h/mL
- AUC(0-t) ([3]; oral, 30 mg QD, C1D1, model-predicted, read-out: AUC0-24 hrs, Median): 15900 ng·h/mL
- Cmax ([3]; oral, 30 mg QD, C1D1, model-predicted, read-out: Cmax, GeoMean): 993 ng/mL
- Cmax ([3]; oral, 30 mg QD, C2D1, model-predicted, read-out: Cmax, Mean): 1860 ng/mL
SMILES: C[C@H](NC(=O)c1c(N)nn2cccnc12)c1cc2cccc(C#Cc3cnn(C)c3)c2c(=O)n1-c1ccccc1 [Compound 1, eganelisib]
- change of PD-L1 status/expression in paired tumor biopsies [1]: on-mechanism conversion of patients from PD-L1(−) to PD-L1(+) and increase in PD-L1 expression in PD-L1(+) patients
- subjects with Grade 3 hepatic TEAE ([2]; eganelisib 30 mg QD with nivolumab 480 mg Q4W): < 20%
- subjects with Hepatic TEAEs ([2]; eganelisib 40 mg QD with nivolumab 480 mg Q4W): > 20%
